The structures appear in SMILES notation.

The nature of assay [1]: Oil stability index (OSI) method, soybean oil. As to conditions: 500 ppm antioxidant, FIG. 1.
A short description of assay [2]: Active oxygen method (AOM), soybean oil. As to conditions: soybean oil subjected to oxidative stress, 500 ppm antioxidant, FIG. 1.

With `CCOc1ccc2c(c1)C(C)=CC(C)(C)N2` [ETX, 6-ethoxy-1,2-dihydro-2,2,4-trimethylquinoline], the OSI induction time result in assay [1] was “about 6 hr”. Besides, the peroxide values entry in assay [2] is reported as “about 11 meq”.

The record behind these values is patent publication US20080015217A1, “ANTIOXIDANT COMBINATIONS FOR USE IN RUMINANT FEED RATIONS” (NOVUS INTERNATIONAL, INC., priority 2006, published 2008).
